{
  "source": "patent US10633348B2",
  "about": "“Methods to treat lymphoplasmacytic lymphoma” (Dana-Farber Cancer Institute, Inc., priority 2013, dated 2020)",
  "assay_type_in_all_cases": "cell-based",
  "key": {"[1]": {"tested_on": "CAMK1D"}, "[2]": {"tested_on": "CAMK2D"}, "[3]": {"tested_on": "GCK"}, "[4]": {"tested_on": "GSK3A"}, "[5]": {"tested_on": "HPK1"}, "[6]": {"tested_on": "IKKa"}, "[7]": {"tested_on": "ILK"}, "[8]": {"tested_on": "JAK3 domain2"}, "[9]": {"tested_on": "KHS1"}, "[10]": {"tested_on": "LATS1"}, "[11]": {"tested_on": "LATS2"}, "[12]": {"tested_on": "MAP2K1"}, "[13]": {"tested_on": "MAP2K4"}, "[14]": {"tested_on": "MAP3K5"}, "[15]": {"tested_on": "MARK2, MARK3", "experiment": "KiNativ kinase profiling in A375 cells", "conditions": "Lys2, SEQ ID NO 92, 1.0 μM"}, "[16]": {"tested_on": "MLK3"}, "[17]": {"tested_on": "MLKL"}, "[18]": {"tested_on": "MST3"}, "[19]": {"tested_on": "NEK1"}, "[20]": {"tested_on": "NEK2"}, "[21]": {"tested_on": "NEK3"}, "[22]": {"tested_on": "p70S6Kb"}, "[23]": {"tested_on": "PCTAIRE2, PCTAIRE3", "experiment": "KiNativ kinase profiling in A375 cells", "conditions": "Lys1, SEQ ID NO 135, 1.0 μM"}, "[24]": {"tested_on": "PDK1"}, "[25]": {"tested_on": "PFTAIRE1"}, "[26]": {"tested_on": "PI4KB"}, "[27]": {"tested_on": "PIP4K2A"}, "[28]": {"tested_on": "PITSLRE", "experiment": "KiNativ kinase profiling in A375 cells", "conditions": "Lys2, SEQ ID NO 152, 1.0 μM"}, "[29]": {"tested_on": "PKN1"}, "[30]": {"tested_on": "PLK1"}, "[31]": {"tested_on": "PYK2"}, "[32]": {"tested_on": "RIPK3"}, "[33]": {"tested_on": "RSK2 domain1"}, "[34]": {"tested_on": "SRC"}, "[35]": {"tested_on": "YANK3"}},
  "data": [
    {"smiles": "CCN1CCN(Cc2ccc(NC(=O)c3ccc(C)c(Oc4cc(N)ncn4)c3)cc2C(F)(F)F)CC1", "note": "[(A-4), 3-((6-aminopyrimidin-4-yl)oxy)-N-(4-((4-ethylpiperazin-1-yl)methyl)-3-(trifluoromethyl)phenyl)-4-methylbenzamide]", "values": [
      {"measurement": "inhibition of kinase labeling", "setting": "[1]", "value": "−6.0", "unit": "%"},
      {"measurement": "inhibition of kinase labeling", "setting": "[2]", "value": "−8.1", "unit": "%"},
      {"measurement": "inhibition of kinase labeling", "setting": "[3]", "value": 94.9, "unit": "%"},
      {"measurement": "inhibition of kinase labeling", "setting": "[4]", "value": 36.0, "unit": "%"},
      {"measurement": "inhibition of kinase labeling", "setting": "[5]", "value": 68.1, "unit": "%"},
      {"measurement": "inhibition of kinase labeling", "setting": "[6]", "value": "−17.0", "unit": "%"},
      {"measurement": "inhibition of kinase labeling", "setting": "[7]", "value": 5.2, "unit": "%"},
      {"measurement": "inhibition of kinase labeling", "setting": "[8]", "value": 7.7, "unit": "%"},
      {"measurement": "inhibition of kinase labeling", "setting": "[9]", "value": 15.8, "unit": "%"},
      {"measurement": "inhibition of kinase labeling", "setting": "[10]", "value": 5.4, "unit": "%"},
      {"measurement": "inhibition of kinase labeling", "setting": "[11]", "value": "−1.9", "unit": "%"},
      {"measurement": "inhibition of kinase labeling", "setting": "[12]", "value": 11.4, "unit": "%"},
      {"measurement": "inhibition of kinase labeling", "setting": "[13]", "value": "−14.1", "unit": "%"},
      {"measurement": "inhibition of kinase labeling", "setting": "[14]", "value": "−30.4", "unit": "%"},
      {"measurement": "inhibition of kinase labeling", "setting": "[15]", "value": 4.6, "unit": "%"},
      {"measurement": "inhibition of kinase labeling", "setting": "[16]", "value": 20.7, "unit": "%"},
      {"measurement": "inhibition of kinase labeling", "setting": "[17]", "value": "−14.9", "unit": "%"},
      {"measurement": "inhibition of kinase labeling", "setting": "[18]", "value": "−3.7", "unit": "%"},
      {"measurement": "inhibition of kinase labeling", "setting": "[19]", "value": "−3.0", "unit": "%"},
      {"measurement": "inhibition of kinase labeling", "setting": "[20]", "value": "−22.7", "unit": "%"},
      {"measurement": "inhibition of kinase labeling", "setting": "[21]", "value": 13.1, "unit": "%"},
      {"measurement": "inhibition of kinase labeling", "setting": "[22]", "value": 8.2, "unit": "%"},
      {"measurement": "inhibition of kinase labeling", "setting": "[23]", "value": 11.7, "unit": "%"},
      {"measurement": "inhibition of kinase labeling", "setting": "[24]", "value": 18.8, "unit": "%"},
      {"measurement": "inhibition of kinase labeling", "setting": "[25]", "value": 4.3, "unit": "%"},
      {"measurement": "inhibition of kinase labeling", "setting": "[26]", "value": "−0.2", "unit": "%"},
      {"measurement": "inhibition of kinase labeling", "setting": "[27]", "value": "−26.7", "unit": "%"},
      {"measurement": "inhibition of kinase labeling", "setting": "[28]", "value": "−10.4", "unit": "%"},
      {"measurement": "inhibition of kinase labeling", "setting": "[29]", "value": "−32.1", "unit": "%"},
      {"measurement": "inhibition of kinase labeling", "setting": "[30]", "value": "−9.1", "unit": "%"},
      {"measurement": "inhibition of kinase labeling", "setting": "[31]", "value": 10.9, "unit": "%"},
      {"measurement": "inhibition of kinase labeling", "setting": "[32]", "value": 32.6, "unit": "%"},
      {"measurement": "inhibition of kinase labeling", "setting": "[33]", "value": "−3.3", "unit": "%"},
      {"measurement": "inhibition of kinase labeling", "setting": "[34]", "value": 76.1, "unit": "%"},
      {"measurement": "inhibition of kinase labeling", "setting": "[35]", "value": 27.7, "unit": "%"}
    ]}
  ]
}
